The Ki is the equilibrium dissociation constant of an inhibitor or competing ligand from its target.

Chain of CNS nicotinic receptors (P09483 31-630): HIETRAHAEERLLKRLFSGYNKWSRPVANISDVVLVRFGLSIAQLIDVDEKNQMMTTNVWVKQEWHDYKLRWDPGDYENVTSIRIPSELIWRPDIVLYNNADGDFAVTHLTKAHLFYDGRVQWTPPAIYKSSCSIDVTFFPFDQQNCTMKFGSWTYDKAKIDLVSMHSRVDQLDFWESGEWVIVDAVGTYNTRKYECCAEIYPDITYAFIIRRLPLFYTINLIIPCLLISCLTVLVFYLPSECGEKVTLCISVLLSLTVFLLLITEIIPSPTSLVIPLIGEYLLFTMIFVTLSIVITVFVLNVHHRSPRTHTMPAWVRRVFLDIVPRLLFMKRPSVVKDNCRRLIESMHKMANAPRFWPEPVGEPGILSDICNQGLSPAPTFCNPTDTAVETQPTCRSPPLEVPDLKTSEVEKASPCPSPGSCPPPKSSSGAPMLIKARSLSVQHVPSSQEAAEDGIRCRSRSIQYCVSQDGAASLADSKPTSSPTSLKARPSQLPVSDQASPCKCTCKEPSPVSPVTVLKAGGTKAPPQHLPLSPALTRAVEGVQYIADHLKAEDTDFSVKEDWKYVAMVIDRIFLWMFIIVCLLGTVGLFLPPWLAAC
Chain of CNS nicotinic receptors (P12390 25-500): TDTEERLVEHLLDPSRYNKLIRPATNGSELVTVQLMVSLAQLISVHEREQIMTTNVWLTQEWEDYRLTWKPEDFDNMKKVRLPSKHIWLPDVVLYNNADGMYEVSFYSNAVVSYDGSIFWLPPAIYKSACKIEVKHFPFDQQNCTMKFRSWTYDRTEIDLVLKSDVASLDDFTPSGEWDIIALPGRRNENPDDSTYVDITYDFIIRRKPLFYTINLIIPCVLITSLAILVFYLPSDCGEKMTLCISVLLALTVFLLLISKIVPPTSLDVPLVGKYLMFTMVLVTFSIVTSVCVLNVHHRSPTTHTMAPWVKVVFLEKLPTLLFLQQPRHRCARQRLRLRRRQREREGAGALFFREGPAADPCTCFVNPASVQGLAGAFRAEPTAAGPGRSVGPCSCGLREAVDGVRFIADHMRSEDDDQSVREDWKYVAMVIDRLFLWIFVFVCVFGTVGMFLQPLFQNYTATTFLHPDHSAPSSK

The first assay concerns the target CNS nicotinic receptors (Rattus norvegicus, UniProt P09483+P12390). The experiment in a line: Determination of binding to relevant receptor sites. To be noted: calculated from the IC50 values using the method of Cheng et al.; techniques of U.S. Pat. No. 5,597,919; read-out: Ki (inhibition constant, receptor binding).
In the case of “(S)-(E)-3(2-pyrrolidin-2-ylvinyl)pyridine hemigalactarate [Sample No. 2]”, the Ki is 306 nM.

On to “(S)-3-(phenoxyphenyl)-5-(pyrrolidin-2-ylethynyl)pyridine hemigalactarate [Sample No. 9]”, for which the Ki is 530 nM.

Turning to “(S)-3-(3-pyridyloxy)-5-(pyrrolidin-2-ylethynyl)pyridine hemigalactarate [Sample No. 15]”, the Ki was 13 nM.

As to “(S)-3-(pyrrolidin-2-ylethynyl)-5-(tetrahydropyran-4-yloxy)pyridine hemigalactarate [Sample No. 16]”, the Ki is 7 nM.

For the compound “(S)-3-isopropoxy-5-(pyrrolidin-2-ylethynyl)pyridine hemigalactarate [Sample No. 7]”, the inhibitory constant (Ki) was 2 nM.

As for “(S)-3-(4-methoxyphenoxy)-5-(pyrrolidin-2-ylethynyl)pyridine hemigalactarate [Sample No. 10]”, the Ki is 33 nM.

For the compound “(E,S)-3-cyclopentyloxy-5-(pyrrolidin-2-ylvinyl)pyridine hemigalactarate [Sample No. 19]”, the inhibition constant Ki is 51 nM.

The same assay, now with this note: read-out: Ki (inhibition constant, receptor binding).
As to `Oc1ccc(Oc2cncc(C#C[C@@H]3CCCN3)c2)cc1` [Sample No. 11, (S)-3-(4-hydroxyphenoxy)-5-(pyrrolidin-2-ylethynyl)pyridine], the Ki turned out to be 2 nM.
